test system: primary cultured mouse cortical neurons; conditions: 10 μM, pH 6.0, n=8

Row | Compound | protection against acid-induced neuronal injury (LDH release), analogs
1 | CC(C)CCC[C@@H](C)[C@H]1CC[C@H]2[C@@H]3C[C@@H]4O[C@@]45C[C@@H](O)CC[C@]5(C)[C@H]3CC[C@]12C [5α,6α-epoxy-Chol, 5α,6α-epoxycholesterol] | none of them shows significant protection
2 | CC(C)CCC[C@@H](C)[C@H]1CC[C@H]2[C@@H]3C[C@H]4O[C@]45C[C@@H](O)CC[C@]5(C)[C@H]3CC[C@]12C [5β,6β-epoxy-Chol, 5β,6β-epoxycholesterol] | none of them shows significant protection
3 | C[C@@]12CCC[C@H]1[C@@H]1C[C@@H](O)[C@@]3(O)C[C@@H](O)CC[C@]3(C)[C@H]1CC2 [Andro-triol, 5α-androst-3β, 5, 6β-triol] | none of them shows significant protection

From patent US20240165129A1, “METHODS OF TREATING PAIN AND DEPRESSION” (priority 2022, published 2024)
